Measured values: patent US8129123B2, “Methods for assessing atherogenesis by determining oxidized phospholipid to apolipoprotein B ratios” (The Regents of the University of California, priority 2004, dated 2012)
Like-named read-outs stand apart in the source and are kept apart here.

Assays:
[1] = MIRACL trial: primary efficacy measure (recurrent ischemic events) over 16 weeks; assay type: in vivo, human; conditions: 2442 patients with baseline data, 16-week follow-up
Description: (§1) The MIRACL study design was previously published. Briefly, the study recruited 3086 patients with unstable angina or non-Q-wave acute myocardial infarction between 24-96 hours after hospital admission at 122 centers in 19 countries. Patients were randomly assigned to double-blind treatment with atorvastatin 80 mg/day or placebo for 16 weeks. The primary efficacy measure was the time to first occurrence of death, nonfatal acute myocardial infarction, cardiac arrest with resuscitation, or worsening angina with new objective evidence of ischemia and requiring emergency re-hospitalization. […] Patients were analyzed on an intention-to-treat basis.
(§2) Since the baseline and Week 16 distributions of the OxLDL markers were positively skewed, log-transformed values were used in the statistical models and analyses and antilog-transformed for descriptive statistics yielding geometric means and 95% confidence intervals (CI) for baseline, Week 16 and percent change from baseline to Week 16. […] For each marker, the logistic regression model included terms for log-transformed marker and randomized treatment assignment; odds ratios were expressed as the relative odds for each one unit increase in the log-transformed marker. Pearson correlations were calculated to summarize the relationship between OxPL/apoB and Lp(a) at baseline and at Week 16. […]

[2] = test system: oxidized phospholipids (OxPL) on apoB-100 particles; assay: OxLDL-E06 chemiluminescent ELISA (OxPL/apoB and Total apoB-OxPL) in plasma; assay type: in vivo, human
Description: (§3) The MIRACL study design was previously published. Briefly, the study recruited 3086 patients with unstable angina or non-Q-wave acute myocardial infarction between 24-96 hours after hospital admission at 122 centers in 19 countries. Patients were randomly assigned to double-blind treatment with atorvastatin 80 mg/day or placebo for 16 weeks. The primary efficacy measure was the time to first occurrence of death, nonfatal acute myocardial infarction, cardiac arrest with resuscitation, or worsening angina with new objective evidence of ischemia and requiring emergency re-hospitalization. 2739 patients completed the entire 16 week follow-up period, of whom 2442 had baseline blood samples and 2341 had baseline and Week 16 blood samples available for analysis. Blood was collected in EDTA and stored at −70° C. until analysis. Patients were analyzed on an intention-to-treat basis.
(§4) Chemiluminescent ELISA was used to measure OxLDL markers (FIG. 1A-1C). All samples for a given assay were run in a single assay and internal controls consisting of high and low standard plasma samples were included to detect potential variations between microtitration plates. Each sample was assayed in triplicate and data are expressed as relative light units (RLU) in 100 milliseconds. The intra-assay coefficients of variation for all assays were 6-10%.
OxLDL-E06 is a measure of the content of oxidized phospholipids (OxPL) per apoB-100 particle using the murine monoclonal antibody E06, which specifically binds to the phosphorylcholine head group of oxidized but not native phospholipids. A 1:50 dilution of plasma in phosphate-buffered saline (PBS) is added to microtiter wells coated with the monoclonal antibody MB47 (5 μg/ml), which specifically binds apoB-100 particles. Under these conditions, a saturating amount of apoB-100 is added to each well and consequently an equal number of apoB-100 particles are captured in each well for all assays. The content of OxPL per apoB-100 is then determined with biotinylated E06. In a previous study we directly measured the amount of apoB-100 bound in each well by the degree of binding of a biotinylated anti-apoB-100 antibody, and compared the OxPL RLU values alone to the ratio of OxPL RLU/apoB-100 RLU and found a correlation of r^2=0.99 (n=1500 samples). Therefore, we arbitrarily assigned the apoB-100 RLU value in the denominator as 1 and report the OxPL/apoB values as OxPL RLU counts only. Note that by design, this assay normalizes the OxPL content per apoB-100 particle and is therefore independent of plasma apoB-100 (and thus LDL-cholesterol) levels.
(§5) The data for OxLDL-E06 and apoB-IC are presented in two ways: 1) as OxPL/apoB and IC/apoB, which specifically quantifies the content of OxPL and IC, respectively, on each captured apoB-100 particle, and 2) as Total apoB-OxPL and Total apoB-IC, which reflects the OxPL and IC content on all apoB-100 containing particles in plasma, by multiplying the plasma “OxPL/apoB” and “IC/apoB” value by the plasma apoB-100 levels measured independently as noted below.
Since the baseline and Week 16 distributions of the OxLDL markers were positively skewed, log-transformed values were used in the statistical models and analyses and antilog-transformed for descriptive statistics yielding geometric means and 95% confidence intervals (CI) for baseline, Week 16 and percent change from baseline to Week 16. […]

[3] = test system: apoB-100 immune complexes; assay: Apolipoprotein B-100 immune complexes (IC/apoB and Total apoB-IC, IgG and IgM) chemiluminescent ELISA in plasma; assay type: in vivo, human
Description: as §3, §4, §5
(§6) Plasma titers of IgG and IgM apoB-IC and malondialdehyde (MDA-LDL) (1:200 plasma dilution) autoantibodies and apoB-IC were measured as previously described.
Since the baseline and Week 16 distributions of the OxLDL markers were positively skewed, log-transformed values were used in the statistical models and analyses and antilog-transformed for descriptive statistics yielding geometric means and 95% confidence intervals (CI) for baseline, Week 16 and percent change from baseline to Week 16. Inferential analyses included paired-sample t-tests for within treatment group differences in markers at baseline versus Week 16, and independent-sample t-tests for between treatment group differences in markers at Week 16 and between treatment group differences in absolute change in log-transformed markers from baseline to Week 16. Logistic regression models were constructed to summarize the relationships between baseline OxLDL values and the primary efficacy measure of the trial. For each marker, the logistic regression model included terms for log-transformed marker and randomized treatment assignment; odds ratios were expressed as the relative odds for each one unit increase in the log-transformed marker. Pearson correlations were calculated to summarize the relationship between OxPL/apoB and Lp(a) at baseline and at Week 16. Statistical significance was defined as P<0.05.

MDA-LDL autoantibodies = assay: Autoantibodies to MDA-LDL (IgG and IgM) chemiluminescent ELISA in plasma; assay type: in vivo, human
Description: as §3
Chemiluminescent ELISA was used to measure OxLDL markers (FIG. 1A-1C). […] Each sample was assayed in triplicate and data are expressed as relative light units (RLU) in 100 milliseconds. […]
as §6, §2

Lp(a) = assay: Plasma Lp(a) level, chemiluminescent ELISA with antibody LPA4; assay type: in vivo, human
Description: as §1
(§7) Plasma Lp(a) levels were measured by a chemiluminescent ELISA with monoclonal antibody LPA4, as previously described. […] ApoB-100 levels were measured by a commercially available kit (Behring) and CRP levels as previously described.
(§8) Since the baseline and Week 16 distributions of the OxLDL markers were positively skewed, log-transformed values were used in the statistical models and analyses and antilog-transformed for descriptive statistics yielding geometric means and 95% confidence intervals (CI) for baseline, Week 16 and percent change from baseline to Week 16. […] Pearson correlations were calculated to summarize the relationship between OxPL/apoB and Lp(a) at baseline and at Week 16. […]

ApoB-100 = assay: Plasma apoB-100 level (Behring kit); assay type: in vivo, human
Description: as §1, §7, §8

LDL cholesterol [4] = assay: Plasma LDL cholesterol in MIRACL patients; assay type: in vivo, human
Description: as §3, with “MIRACL” left out, “-70°” for “−70°”

[5] = entire MIRACL population, 16 weeks; cited from earlier work
LDL cholesterol [6] = conditions: PROVE-IT, two years' treatment, 80 mg atorvastatin versus 40 mg pravastatin; cited from earlier work
[7] = Week 16, atorvastatin 80 mg/day, ACS patients, geometric mean

CC(C)c1c(C(=O)Nc2ccccc2)c(-c2ccccc2)c(-c2ccc(F)cc2)n1CC[C@@H](O)C[C@@H](O)CC(=O)O [atorvastatin]
patients with a primary endpoint event [1]: 10.7%
OxPL/apoB mean level [2, 7]: 11048 RLU
Total apoB-OxPL mean level [2, 7]: 912 (RLU · mg/dl) × 10^3
OxPL/apoB relative increase from baseline ([2]; baseline to Week 16, 80 mg/day): 9.5%
Total apoB-OxPL percent change from baseline ([2]; baseline to Week 16, 80 mg/day): −29.7%
OxPL enrichment of apoB particles (OxPL/apoB), absolute difference compared to placebo ([2]; baseline to Week 16 change, atorvastatin vs placebo): 13.4%
IC/apoB IgG mean level [3, 7]: 9048 RLU
IC/apoB IgM mean level [3, 7]: 3933 RLU
Total apoB-IC IgG mean level [3, 7]: 749 (RLU · mg/dl) × 10^3
Total apoB-IC IgM mean level [3, 7]: 325 (RLU · mg/dl) × 10^3
IgG IC/apoB relative increase from baseline ([3]; baseline to Week 16, 80 mg/day): 9.6%
IgM IC/apoB relative increase from baseline ([3]; baseline to Week 16, 80 mg/day): 15.4%
Total apoB-IC IgG percent change from baseline ([3]; baseline to Week 16, 80 mg/day): −29.5%
Total apoB-IC IgM percent change from baseline ([3]; baseline to Week 16, 80 mg/day): −25.7%
Autoantibodies to MDA-LDL IgG mean level (MDA-LDL autoantibodies; [7]): 4922 RLU
Autoantibodies to MDA-LDL IgM mean level (MDA-LDL autoantibodies; [7]): 1088 RLU
IgG and IgM MDA-LDL autoantibody level increase (MDA-LDL autoantibodies; baseline to Week 16, range stated for both groups (atorvastatin and placebo)): 9.1-14.4%
Lp(a) mean level (Lp(a); [7]): 13.0 mg/dL
Lp(a) relative increase from baseline (Lp(a); baseline to Week 16, 80 mg/day): 8.8%
ApoB-100 mean level (ApoB-100; [7]): 87 mg/dL
apoB-100 percent change from baseline (ApoB-100; baseline to Week 16, 80 mg/day): −33.0%
LDL cholesterol level after treatment (LDL cholesterol [4]; Week 16 (from 124±34 at baseline), 80 mg/day): 72 ± 35 mg/dL
reduction in LDL cholesterol (LDL cholesterol [4]; baseline to Week 16, 80 mg/day): 42%
patients with a primary endpoint event [5]: 14.6%
median LDL cholesterol level (LDL cholesterol [6]): 62 mg/dL
